Source: US7745693B2, “Inhibitors of plant peptide deformylase for use as broad-spectrum herbicides and methods for identifying the same” (University of Kentucky Research Foundation, priority 2007, dated 2010)

Legend:
AtDEF2 = molecular target: T1, AtDEF2 (Arabidopsis thaliana, UniProt Q9FUZ2); assay: Continuous spectrophotometric peptide deformylase activity and inhibition assay (formyl-Met-Leu-p-nitroanilide, coupled with Aeromonas proteolytica aminopeptidase); assay type: biochemical
T1 construct: the entire putative protein and the ChloroP-predicted chloroplast-length protein; initiator Met from the NdeI site (N); made in house; host or cells: E. coli BL21(DE3)pLysS, pET23b, clone #4-D
T1 sequence (Q9FUZ2 57-273): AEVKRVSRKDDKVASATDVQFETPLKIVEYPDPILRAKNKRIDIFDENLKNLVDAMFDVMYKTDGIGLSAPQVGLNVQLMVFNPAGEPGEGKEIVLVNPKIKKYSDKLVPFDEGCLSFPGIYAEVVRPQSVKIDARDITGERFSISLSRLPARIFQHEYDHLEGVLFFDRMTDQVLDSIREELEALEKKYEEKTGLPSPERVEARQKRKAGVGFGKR
Description: Experiments were designed to detect deformylase activity from recombinant AtDEF2 using the assay as described by Wei and Pei, Analytical Biochemistry 250:29-34 (1997). Continuous spectrophotometric assays of peptide deformylase activity were carried out at a temperature of 20° C. Assays were performed in polystyrene or quartz cuvettes containing 50 mM Tris-HCl, pH 8.2, 1 mM ethylene diamine bis(β-aminoethyl ether-N,N′-tetraacetic acid ([…]), 5 mM MgCl2, 200 μM NiSO4 0-200 μM peptide substrate and 1.0 units of Aeromonas proteolytica aminopeptidase. […] The reactions were monitored continuously at 405 nm in a Shimadzu UV-201 PC scanning spectrophotometer, and the initial rates were calculated from the early part of the reaction progression curves (<60 s). Spectrophotometric detection and quantitation was performed of p-nitroaniline released from formyl-Met-Leu-p-nitroanilide substrate (BACHEM Cat. No. L2030; King of Prussia, Pa. 19406 USA) following sequential action of AtDEF2 and Aeromonas proteolytica aminopeptidase (Sigma Cat. No. A8200; St. Louis, Mo., 63118 USA).

[1] = system: Pea plants (Pisum sativum L. cv. Laxton's Progress No. 9); assay: Assay for in vivo herbicidal activity on pea plants; details: ten-day old pea plants
Description: Pea plants (Pisum sativum L. cv. Laxton's Progress No. 9) were sown in 46×62 cm flats of MetroMix 360 and grown for 10-12 days in a greenhouse (minimum night temperature of 30° C.) as described by Wang, P., Royer, M., and Houtz, R. L. Affinity purification of ribulose-1,5-bisphosphate carboxylase/oxygenase large subunit epsilon N-methyltransferase. Protein Expression and Purification 6:528-526 (1995). Ten-day old pea plants were treated with approximately 100-200 μl actinonin (final concentration. 2.5 mg/ml per plant in 0.1% Tween-20). Control plants were treated with 0.1% Tween-20. […] The changes were clearly visible within 48 hours after treatment with actinonin.

Structure (SMILES): CCCCC[C@H](CC(=O)NO)C(=O)N[C@H](C(=O)N1CCC[C@H]1CO)C(C)C [actinonin]
- inhibition of deformylase activity after preincubation (AtDEF2; 43.5 μg AtDEF2 preincubated 3 minutes with 3.2 μM actinonin, assay then initiated with substrate): Nearly complete inhibition
- inhibition of AtDEF2 activity (actinonin included in assay, no preincubation) (AtDEF2; within 60 seconds, FIG. 8, 20° C.): significantly inhibited
- time after treatment at which changes were clearly visible ([1]; 2.5 mg/ml actinonin in 0.1% Tween-20): ≤ 48 h
- observable alterations in plant growth ([1]; approximately 100-200 μl actinonin, 2.5 mg/ml per plant in 0.1% Tween-20, foliar application): stunting and yellowing of pea plants
